Here are results for 49 compounds from patent US20240307409A1, “ARGININE METHYLTRANSFERASE INHIBITOR AND USE THEREOF” (Cytosinlab Therapeutics Co., Ltd., priority 2021, published 2024).

pIC50: −log10 of the molar value.

One assay deals with PRMT1 (Homo sapiens, UniProt Q99873). As to the kind of experiment: PRMT1 enzyme activity test. It counts as biochemical. Particulars: 0.5 nM PRMT1, 3H-SAM, peptide. A digest of the protocol: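 Radiometric methylation assay: 0.5 nM PRMT1 preincubated 15 min at room temperature with compound (10-point 3-fold series, 1% DMSO) in pH 8.0 Tris buffer with Tween-20 and DTT. 0.25 uM ³H-SAM and 0.1 uM biotinylated peptide then reacted 120 min. Product captured on streptavidin FlashPlate and counted; IC50 from four-parameter fit of % inhibition.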

The next assay has as its system Toledo cells. Nature of the assay: Toledo cell proliferation inhibition assay. It is filed as cell-based. The following applies: Homo sapiens, Toledo, 144 h; six-day assay, CellTiter-Glo. In outline:
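Toledo cells seeded at 2000 cells/well in RPMI 1640 + 10% FBS and incubated with compound for six days at 37° C, 5% CO2. Viability was then read by CellTiter-Glo luminescence after 30 min orbital mixing.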

PRMT1, sequence (Q99873 whole entry): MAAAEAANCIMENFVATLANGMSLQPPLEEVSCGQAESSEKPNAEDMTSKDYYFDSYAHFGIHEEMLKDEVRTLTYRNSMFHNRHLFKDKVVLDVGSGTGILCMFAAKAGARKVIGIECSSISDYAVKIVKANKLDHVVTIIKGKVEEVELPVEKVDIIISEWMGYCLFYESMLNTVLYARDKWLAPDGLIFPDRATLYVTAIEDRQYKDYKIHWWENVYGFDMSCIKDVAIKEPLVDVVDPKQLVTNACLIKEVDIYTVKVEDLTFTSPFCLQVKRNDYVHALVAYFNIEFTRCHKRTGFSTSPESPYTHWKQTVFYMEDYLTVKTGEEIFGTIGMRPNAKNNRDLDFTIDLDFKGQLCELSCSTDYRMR

On to `CNCCN(C)Cc1ncccc1C1CCN(c2ccccc2C#N)CC1` [P201], for which the pIC50 against PRMT1 was above 7.30; with Toledo cells, above 6.00.

In the case of `CNCCN(C)Cc1ncccc1C1CCN(C(=O)c2ccccc2)CC1` [P203], the pIC50 was 6.30 to 7.30 against PRMT1 and at most 5.30 in the assay on Toledo cells.

As to `CCOCC1(COCC)CCC(c2ccncc2CN(C)CCNC)CC1` [P205], the pIC50 was 6.30 to 7.30 against PRMT1 and 5.30 to 6.00 in the assay with Toledo cells.

Consider `CNCCN(C)Cc1ncccc1C1CCN(c2cccnc2)CC1` [P214], for which the pIC50 is above 7.30 at PRMT1 and 5.30 to 6.00 with Toledo cells.

In the case of `CNCCN(C)Cc1ncccc1C1CCN(c2ccncc2)CC1` [P215], the pIC50 is above 7.30 against PRMT1 and 5.30 to 6.00 in the assay on Toledo cells.

For the compound `CNCCN(C)Cc1ncccc1C1CCN(c2ccccn2)CC1` [P216], the negative-log IC50 (pIC50) against PRMT1 was above 7.30; in the assay with Toledo cells it was 5.30 to 6.00.

Consider `CCOCC1CCCN(c2cccnc2CN(C)CCNC)C1` (centres unmarked) [P217], for which the pIC50 is 6.30 to 7.30 at PRMT1 and 5.30 to 6.00 in the assay on Toledo cells.

In the case of `CCOCC1CCN(c2cccnc2CN(C)CCNC)CC1` [P218], the negative logarithm of the IC50 (pIC50) against PRMT1 is above 7.30; in the assay on Toledo cells, 5.30 to 6.00.

For the compound `CNCCN(C)Cc1ccc(C(N)=O)cc1C1CCN(c2cccc(C)c2)CC1` [P221], the pIC50 on PRMT1 is above 7.30; in the assay with Toledo cells, above 6.00.

For the compound `CCN1CC2(CCC(c3cccnc3CN(C)CCNC)CC2)CC1=O` (centres unmarked) [P222], the pIC50 against PRMT1 was above 7.30; with Toledo cells, at most 5.30.

`CNCCN(C)Cc1ncccc1N1CCC(OC(C)C)CC1` [P224]: the pIC50 against PRMT1 is above 7.30; with Toledo cells, 5.30 to 6.00.

As for `CNCCN(C)Cc1nc(N)ccc1C1CCN(c2cccc(C)c2)CC1` [P227], the pIC50 against PRMT1 was above 7.30; with Toledo cells, above 6.00.

On to `CNCCN(C)Cc1ccc2[nH]ncc2c1N1CCc2ccccc2CC1` [P228], for which the negative-log IC50 (pIC50) was above 7.30 against PRMT1 and above 6.00 with Toledo cells.

With `CNCCN(C)Cc1ncccc1N1CCC(Oc2ccccc2OC(F)(F)F)CC1` [P230], the values for the pIC50 against PRMT1 and in the assay with Toledo cells were above 7.30 and above 6.00, respectively.

As to `CNCCN(C)Cc1ncccc1N1CCCC(OC)CC1` (centres unmarked) [P233], the pIC50 against PRMT1 is above 7.30; in the assay with Toledo cells, at most 5.30.

Turning to `CNCCN(C)Cc1ncccc1C1CCN(c2ccc3c(c2)OC(C)(C)O3)CC1` [P234], the negative logarithm of the IC50 (pIC50) at PRMT1 is 6.30 to 7.30; in the assay on Toledo cells, 5.30 to 6.00.

`CNCCN(C)Cc1ncccc1N1CCC(Oc2cccc(OC)c2)CC1` [P238]: the negative-log IC50 (pIC50) on PRMT1 was above 7.30; in the assay on Toledo cells it was above 6.00.

For `CNCCN(C)Cc1ncccc1C1CCN(c2nc(C)nc3ccccc23)CC1` [P239], the negative-log IC50 (pIC50) against PRMT1 was above 7.30; in the assay with Toledo cells, 5.30 to 6.00.

With `CNCCN(C)Cc1ncccc1C1CCN(c2nc(C)cc(N3CCCC3)n2)CC1` [P242], the values for the pIC50 at PRMT1 and in the assay on Toledo cells were above 7.30 and above 6.00, respectively.

With `CCOCC1(COCC)CCN(c2cccnc2CN(C)CCNC)C1` [P248], the figures for the pIC50 against PRMT1 and with Toledo cells were 6.30 to 7.30 and 5.30 to 6.00, respectively.

In the case of `CNCCN(C)Cc1ncccc1C1CCN(c2cccc(C(=O)NC)c2)CC1` [P254], the pIC50 at PRMT1 was 6.30 to 7.30; in the assay on Toledo cells, at most 5.30.

Regarding `CNCCN(C)Cc1ncccc1C1CCN(c2ccc(C(=O)NC)cc2)CC1` [P255], the negative-log IC50 (pIC50) was above 7.30 at PRMT1 and 5.30 to 6.00 in the assay with Toledo cells.

For the compound `CNCCN(C)Cc1ncccc1N1CCC(Oc2ccc(-n3ccnc3)cc2)CC1` [P259], the negative-log IC50 (pIC50) on PRMT1 is above 7.30; with Toledo cells it was 5.30 to 6.00.

Turning to `CNCCN(C)Cc1ncccc1N1CCCOCC1` [P260], the pIC50 against PRMT1 is above 7.30; in the assay with Toledo cells it was 5.30 to 6.00.

As for `CNCCN(C)Cc1ncccc1C1CCN(c2cc(C)nc(C)n2)CC1` [P262], the negative logarithm of the IC50 (pIC50) at PRMT1 was above 7.30; with Toledo cells it was 5.30 to 6.00.

Consider `CNCCN(C)Cc1ncccc1N1CCC(NC2CCOCC2)CC1` [P263], for which the figures for the negative logarithm of the IC50 (pIC50) against PRMT1 and in the assay with Toledo cells were at most 6.30 and at most 5.30, respectively.

Consider `CCOCC1(COCC)CCC(c2c(CN(C)CCNC)ccc3[nH]ncc23)CC1` [P266, N1-((4-(4,4-bis(ethoxymethyl)cyclohexyl)-1H-indazol-5-yl)methyl)-N1,N2-dimethylethane-1,2-diamine], for which the pIC50 on PRMT1 was above 7.30; in the assay with Toledo cells, above 6.00.

On to `CNCCN(C)Cc1ncccc1N1CCC(Oc2ccncc2)CC1` [P267], for which the negative logarithm of the IC50 (pIC50) is above 7.30 on PRMT1 and 5.30 to 6.00 in the assay on Toledo cells.

As for `CNCCN(C)Cc1ncccc1N1CCC(Oc2ccccn2)CC1` [P268], the values for the negative logarithm of the IC50 (pIC50) on PRMT1 and with Toledo cells were above 7.30 and 5.30 to 6.00, respectively.

Take `CNCCN(C)Cc1ncccc1N1CCC(Oc2cccnc2)CC1` [P269]: the negative-log IC50 (pIC50) was above 7.30 at PRMT1 and 5.30 to 6.00 with Toledo cells.

As to `CNCCN(C)Cc1ncccc1N1CCc2ccc(NC(C)=O)cc2CC1` [P270], the values for the negative logarithm of the IC50 (pIC50) against PRMT1 and in the assay with Toledo cells were above 7.30 and 5.30 to 6.00, respectively.

Turning to `CNCCN(C)Cc1ncccc1C1COc2ccccc2OC1` [P271], the negative logarithm of the IC50 (pIC50) at PRMT1 was above 7.30; in the assay with Toledo cells, 5.30 to 6.00.

Turning to `CNCCN(C)Cc1ncccc1N1CCc2nc(N(C)C)nc(C)c2CC1` [P272], the negative-log IC50 (pIC50) is 6.30 to 7.30 on PRMT1 and 5.30 to 6.00 with Toledo cells.

In the case of `CCOC(=O)C1(CC)CCN(c2cccnc2CN(C)CCNC)CC1` [P273], the negative logarithm of the IC50 (pIC50) is above 7.30 against PRMT1 and 5.30 to 6.00 in the assay on Toledo cells.

On to `CNCCN(C)Cc1ncccc1N1CCC(N2CCC(C(=O)NC)CC2)CC1` [P275], for which the negative logarithm of the IC50 (pIC50) is at most 6.30 at PRMT1 and at most 5.30 in the assay on Toledo cells.

Turning to `CNCCN(C)Cc1ncccc1N1CCC(N2CCCC(C(=O)NC)C2)CC1` (centres unmarked) [P276], the negative logarithm of the IC50 (pIC50) against PRMT1 is at most 6.30; in the assay on Toledo cells, at most 5.30.

Consider `CNCCN(C)Cc1ncccc1C1CCN(c2ccnc(C)n2)CC1` [P277], for which the pIC50 against PRMT1 is above 7.30; in the assay with Toledo cells, above 6.00.

For `CNCCN(C)Cc1ncccc1C1CCN(c2nccc(C)n2)CC1` [P278], the results for the pIC50 on PRMT1 and with Toledo cells were above 7.30 and 5.30 to 6.00, respectively.

For `CNCCN(C)Cc1ncccc1C1CCN(c2cc(C)ncn2)CC1` [P279], the results for the negative-log IC50 (pIC50) against PRMT1 and in the assay on Toledo cells were above 7.30 and 5.30 to 6.00, respectively.

As to `CNCCN(C)Cc1ncccc1N1CCc2nc(C)nc(C)c2CC1` [P280], the pIC50 was above 7.30 against PRMT1 and at most 5.30 in the assay on Toledo cells.

Regarding `CNCCN(C)Cc1ncccc1N1CC[C@H](OC)[C@H](OC)CC1` [P281], the negative-log IC50 (pIC50) against PRMT1 is 6.30 to 7.30; in the assay on Toledo cells, at most 5.30.

On to `CNCCN(C)Cc1ncccc1C1CCN(c2ccc(S(C)(=O)=O)cc2)CC1` [P284], for which the pIC50 against PRMT1 was above 7.30; with Toledo cells, 5.30 to 6.00.

On to `CNCCN(C)Cc1ncccc1C1CCN(c2cccc(C(=O)O)c2)CC1` [P285], for which the negative logarithm of the IC50 (pIC50) against PRMT1 is at most 6.30; in the assay on Toledo cells, at most 5.30.

Turning to `CNCCN(C)Cc1ncccc1N1CCc2cnc(N(C)C)nc2CC1` [P286], the negative-log IC50 (pIC50) against PRMT1 is above 7.30; in the assay with Toledo cells, 5.30 to 6.00.

`CNCCN(C)Cc1ncccc1C1CCN(c2ccncn2)CC1` [P287]: the pIC50 was above 7.30 against PRMT1 and above 6.00 with Toledo cells.

In the case of `CNCCN(C)Cc1ncccc1C1CCN(c2cnccn2)CC1` [P288], the negative-log IC50 (pIC50) is above 7.30 on PRMT1 and 5.30 to 6.00 with Toledo cells.

For `CNCCN(C)Cc1ncccc1C1CCN(c2ncccn2)CC1` [P290], the values for the pIC50 against PRMT1 and with Toledo cells were above 7.30 and 5.30 to 6.00, respectively.

As for `CNCCN(C)Cc1ncccc1N1CCc2cnc(C)nc2CC1` [P291], the negative logarithm of the IC50 (pIC50) on PRMT1 was above 7.30; with Toledo cells, at most 5.30.

On to `CNCCN(C)Cc1ncc(N)nc1C1CCN(c2cccc(C)c2)CC1` [P292, N-((5-amino-3-(1-(m-tolyl)piperidin-4-yl)pyrazin-2-yl)methyl)-N,N′-dimethyl-1,2-ethyle nediamine], for which the negative-log IC50 (pIC50) is above 7.30 against PRMT1 and above 6.00 with Toledo cells.
